Data published in patent US11230538B2, “Herbicides” (SYNGENTA PARTICIPATIONS AG, priority 2016, dated 2022).

Key:
Type in all cases: in vivo
[1] = test system: Alopecurus myosuroides (ALOMY); experiment: B1 Pre-emergence herbicidal activity; set-up: key: 5=total damage to plant; 0=no damage to plant; conditions: pre-emergence application, rate 1000 g/ha, evaluated after 13 days
How it was run: (§1)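 Damage was rated 13 days after treatment, from 0 for none to 5 for total. The spray, in acetone/water 50:50 with 0.5% Tween 20, was applied pre-emergence, one day after seeds were sown in soil. Plants grew under glasshouse control at 24/16 °C, 14 h light, 65% humidity.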

Avena fatua (AVEFA) [2] = experiment: B1 Pre-emergence herbicidal activity; set-up: key: 5=total damage to plant; 0=no damage to plant; conditions: pre-emergence application, rate 1000 g/ha, evaluated after 13 days
How it was run: as §1

[3] = test system: Triticum aestivium (TRZAW); experiment: B1 Pre-emergence herbicidal activity; set-up: key: 5=total damage to plant; 0=no damage to plant; conditions: pre-emergence application, rate 1000 g/ha, evaluated after 13 days
How it was run: as §1

[4] = test system: Echinochloa crus-galli (ECHCG); experiment: B1 Pre-emergence herbicidal activity; set-up: key to Pre-emergence herbicidal activity, ECHCG (damage score 0-5): 5=total damage to plant; 0=no damage to plant; conditions: pre-emergence application, rate 1000 g/ha, evaluated after 13 days
How it was run: as §1

Lolium perenne (LOLPE) [5] = experiment: B1 Pre-emergence herbicidal activity; set-up: key to Pre-emergence herbicidal activity, LOLPE (damage score 0-5): 5=total damage to plant; 0=no damage to plant; conditions: pre-emergence application, rate 1000 g/ha, evaluated after 13 days
How it was run: as §1

Setaria fabenr (SETFA) = experiment: B1 Pre-emergence herbicidal activity; set-up: key to Pre-emergence herbicidal activity, SETFA (damage score 0-5): 5=total damage to plant; 0=no damage to plant; conditions: pre-emergence application, rate 1000 g/ha, evaluated after 13 days
How it was run: as §1

Avena fatua (AVEFA) [6] = experiment: B2 Post-emergence herbicidal activity; conditions: post-emergence application, rate 1000 g/ha, evaluated after 13 days
How it was run: (§2)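 Injury was rated 13 days after treatment from 0 (no damage) to 5 (total damage). The spray, applied 8 days after sowing, was an aqueous solution of the active ingredient from an acetone/water (50:50) formulation with 0.5% Tween 20. Plants were kept at 24/16° C, 14 h light, 65% humidity.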

[7] = test system: Echinochloa crus-galli (ECHCG); experiment: B2 Post-emergence herbicidal activity; set-up: key to Post-emergence herbicidal activity, ECHCG (damage score 0-5): 5=total damage to plant; 0=no damage to plant; conditions: post-emergence application, rate 1000 g/ha, evaluated after 13 days
How it was run: as §2

Lolium perenne (LOLPE) [8] = experiment: B2 Post-emergence herbicidal activity; conditions: post-emergence application, rate 1000 g/ha, evaluated after 13 days
How it was run: as §2

[9] = test system: Alopecurus myosuroides (ALOMY); experiment: B2 Post-emergence herbicidal activity; set-up: key: 5=total damage to plant; 0=no damage to plant; conditions: post-emergence application, rate 1000 g/ha, evaluated after 13 days
How it was run: as §2

Setaria fabenri (SETFA) = experiment: B2 Post-emergence herbicidal activity; set-up: key: 5=total damage to plant; 0=no damage to plant; conditions: post-emergence application, rate 1000 g/ha, evaluated after 13 days
How it was run: as §2

[10] = test system: Triticum aestivium (TRZAW); experiment: B2 Post-emergence herbicidal activity; set-up: key: 5=total damage to plant; 0=no damage to plant; conditions: post-emergence application, rate 1000 g/ha, evaluated after 13 days
How it was run: as §2

| SMILES | Pre-emergence herbicidal activity, ALOMY (damage score 0-5) [1] | Pre-emergence herbicidal activity, AVEFA (damage score 0-5) (Avena fatua (AVEFA) [2]) | Pre-emergence herbicidal activity, TRAZW (damage score 0-5) [3] | Pre-emergence herbicidal activity, ECHCG (damage score 0-5) [4] | Pre-emergence herbicidal activity, LOLPE (damage score 0-5) (Lolium perenne (LOLPE) [5]) | Pre-emergence herbicidal activity, SETFA (damage score 0-5) (Setaria fabenr (SETFA)) | Post-emergence herbicidal activity, AVEFA (damage score 0-5) (Avena fatua (AVEFA) [6]) | Post-emergence herbicidal activity, ECHCG (damage score 0-5) [7] | Post-emergence herbicidal activity, LOLPE (damage score 0-5) (Lolium perenne (LOLPE) [8]) | Post-emergence herbicidal activity, ALOMY (damage score 0-5) [9] | Post-emergence herbicidal activity, SETFA (damage score 0-5) (Setaria fabenri (SETFA)) | Post-emergence herbicidal activity, TRAZW (damage score 0-5) [10] |
| --- | --- | --- | --- | --- | --- | --- | --- | --- | --- | --- | --- | --- |
| CCCCC(=O)Nc1ccc(-c2cncc(F)c2)nc1C(F)(F)F [Compound C49] | 1 | 2 | 0 | 5 | 1 | 5 | 4 | 5 | 3 | 1 | 5 | 0 |
| O=C(Nc1ccc(-c2cncc(F)c2)nc1C(F)(F)F)c1cccnc1 [Compound C50, N-[6-(5-fluoro-3-pyridyl)-2-(trifluoromethyl)-3-pyridyl]pyridine-3-carboxamide] | 0 | 1 | 0 | 3 | 1 | 4 | 3 | 2 | 1 | 1 | 4 | 0 |
| Cc1ccsc1C(=O)Nc1ccc(-c2cncc(F)c2)nc1C(F)(F)F [Compound C51] | 0 | 0 | 0 | 3 | 0 | 4 | 2 | 2 | 1 | 0 | 4 | 0 |
| Cc1ccc(C(=O)Nc2ccc(-c3cncc(F)c3)nc2C(F)(F)F)s1 [Compound C52] | 1 | 1 | 0 | 4 | 1 | 5 | 4 | 4 | 2 | 0 | 5 | 0 |
| O=C(CCC1CCCC1)Nc1ccc(-c2cncc(F)c2)nc1C(F)(F)F [Compound C53] | 1 | 3 | 0 | 5 | 1 | 4 | 4 | 5 | 4 | 0 | 5 | 1 |
| O=C1CCCCN1c1ccc(-c2cncc(F)c2)nc1C(F)(F)F [Compound C54, 1-[6-(5-fluoro-3-pyridyl)-2-(trifluoromethyl)-3-pyridyl]piperidin-2-one] | 0 | 1 | 0 | 2 | 1 | 3 | 3 | 5 | 3 | 1 | 4 | 0 |
